Measured values: publication PMC11348465, “Pharmacochemical Study of Multitarget Amino Acids’ Hybrids: Design, Synthesis, In vitro, and In silico Studies” (Medicinal Chemistry (Shariqah (United Arab Emirates), 2024)

What was measured:
[1] = Inhibition of linoleic acid peroxidation (AAPH-induced)
Method: Our group evaluated the in vitro study as reported previously. Ten 16 mM sodium linoleate solution microliters were added to the UV cuvette containing 93 µL of a 0.05 M phosphate buffer, pH 7.4, and 10 µL of the tested compounds (final concentration 100 µM). The oxidation reaction started at 37 °C under air by adding 50 µL of the free radical initiator AAPH (40 mM). Oxidation was carried out and monitored at 234 nm. DMSO under the same conditions was used as a negative control. Trolox was used as the appropriate standard (positive control). The results are given in Table S1 in the supplementary material.
We used the water-soluble 2, 2’-azobis(2-amidinopropane) hydrochloride (AAPH) to generate in vitro peroxyl radicals through spontaneous thermal decomposition, which resembles cellular lipid peroxidation due to the activity of the undertaken radicals. The anti-lipid peroxidation activities were compared to a well-known antioxidant, i.e., Trolox (Table S1 in the supplementary material). […] In general, the anti-lipid peroxidation ranged from 8-99%. Except for acids 11, 12, 17, 19, 21, 22, 24, 25, and 28, which present high antioxidant activities (on the high % level), the other cinnamic acids present low or medium activity.

ovine COX-2 = biological target: T1, ovine COX-2 (Ovis aries, UniProt P79208); test: Cyclooxygenase-2 inhibition study; assay type: biochemical; settings: for IC50: read-out: COX-2 inhibition (IC50); for COX-2 inhibition (%): % inhibition at 100 µM
T1 construct: purchased Cayman (USA)
T1 sequence (P79208 17-603): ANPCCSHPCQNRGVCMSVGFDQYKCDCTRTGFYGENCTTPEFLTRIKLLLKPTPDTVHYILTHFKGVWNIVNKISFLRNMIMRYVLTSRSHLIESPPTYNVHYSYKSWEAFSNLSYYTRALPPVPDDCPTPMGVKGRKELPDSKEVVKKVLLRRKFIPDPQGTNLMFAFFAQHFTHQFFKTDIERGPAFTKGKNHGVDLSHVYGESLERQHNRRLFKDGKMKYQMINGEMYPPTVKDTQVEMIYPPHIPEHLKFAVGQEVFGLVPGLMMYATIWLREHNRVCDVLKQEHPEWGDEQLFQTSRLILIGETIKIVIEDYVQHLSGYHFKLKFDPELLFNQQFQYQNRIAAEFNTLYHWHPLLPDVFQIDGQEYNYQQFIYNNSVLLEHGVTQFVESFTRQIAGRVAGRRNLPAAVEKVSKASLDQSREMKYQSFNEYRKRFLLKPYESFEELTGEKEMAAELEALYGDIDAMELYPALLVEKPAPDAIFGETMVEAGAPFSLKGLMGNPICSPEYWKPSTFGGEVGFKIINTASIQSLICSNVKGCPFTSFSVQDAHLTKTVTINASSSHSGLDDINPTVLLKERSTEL
Method: The in vitro study of cyclooxygenase (COX) activity was determined by using arachidonic acid (AA) as the substrate and N,N,N’,N’-tetramethylphenylenediamine (TMPD) as the co-substrate. […] The absorption due to the spontaneous oxidation of TMPD was subtracted from the initial rate of oxidation observed in the presence of AA. […] A blank determination was used first to serve as a negative control. Indomethacin was used as a reference COX-2 inhibitor (positive control).
The role of COX-2 in neurodegenerative diseases has been reported, and COX-2 inhibition is considered of high importance as a therapeutic tool. The designed derivatives were tested for their COX-2 inhibition activity on the ovine COX-2 enzyme. […] Indomethacin was used as a reference compound.

[2] = biological target: T2, soybean lipoxygenase (LOX-1) (Glycine max, UniProt P08170); test: Soybean lipoxygenase inhibition study; assay type: biochemical; settings: for LOX inhibition (%): % inhibition at 100 µM; for IC50: read-out: LOX inhibition (IC50)
T2 construct: purchased Sigma Chemical, Co. (St Louis, MO, USA)
T2 sequence (P08170 1-839): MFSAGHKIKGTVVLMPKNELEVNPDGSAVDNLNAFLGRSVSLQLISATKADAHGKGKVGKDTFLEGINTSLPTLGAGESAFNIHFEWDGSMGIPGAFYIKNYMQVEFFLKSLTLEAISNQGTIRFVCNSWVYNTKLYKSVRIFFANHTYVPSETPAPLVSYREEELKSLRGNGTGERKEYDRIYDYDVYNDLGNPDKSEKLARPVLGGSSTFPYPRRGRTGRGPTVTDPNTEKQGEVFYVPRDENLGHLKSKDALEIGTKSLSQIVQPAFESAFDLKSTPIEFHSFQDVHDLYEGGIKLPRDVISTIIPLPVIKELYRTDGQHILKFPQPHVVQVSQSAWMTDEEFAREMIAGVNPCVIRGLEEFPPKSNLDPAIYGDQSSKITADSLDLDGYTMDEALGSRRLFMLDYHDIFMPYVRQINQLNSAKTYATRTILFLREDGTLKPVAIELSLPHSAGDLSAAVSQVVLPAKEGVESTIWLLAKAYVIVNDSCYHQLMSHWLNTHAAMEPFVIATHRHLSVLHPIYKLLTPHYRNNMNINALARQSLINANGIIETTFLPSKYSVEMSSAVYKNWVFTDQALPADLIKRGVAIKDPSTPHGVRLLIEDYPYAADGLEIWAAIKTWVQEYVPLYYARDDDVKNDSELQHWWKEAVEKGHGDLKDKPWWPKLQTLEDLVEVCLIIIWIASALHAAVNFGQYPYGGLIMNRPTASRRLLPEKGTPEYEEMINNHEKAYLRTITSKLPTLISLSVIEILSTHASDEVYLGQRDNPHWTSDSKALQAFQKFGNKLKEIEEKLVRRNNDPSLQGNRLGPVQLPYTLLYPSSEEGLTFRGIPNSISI
Method: Our group evaluated an in vitro study as reported previously. The tested hybrids were incubated at room temperature with sodium linoleate (100 µM) and 200 µL of enzyme solution (1/9 X 10^-4 w/v in saline). […] Different concentrations were used for the determination of IC50. A blank determination was used as a negative control.
Due to the limited work on sufficiently purified human ALOX-5 isoenzyme, most of the published research was performed on the soybean homolog. […] This study used the soybean isoenzyme LOX-1, which exerts maximal activity at pH 9.0 [72].

Row | SMILES | AAPH inhibition (%, at 100 µM) [1] [%] | IC50 (ovine COX-2) [µM] | other results
1 | CCOC(=O)CNC(=O)/C=C/c1ccc(OCc2ccc(Br)cc2)cc1 [Compound 11a, Ethyl (E)-(3-(4-((4-bromobenzyl)oxy)phenyl)acryloyl)glycinate] | 38 | 6 | –
2 | COC(=O)CCCNC(=O)/C=C/c1ccc(OCc2ccc(Br)cc2)cc1 [Compound 11b] | 19 | – | LOX inhibition (%) [2]: 30%
3 | COC(=O)CC[C@H](NC(=O)/C=C/c1ccc(OCc2ccc(Br)cc2)cc1)C(=O)OC [Compound 11c] | 92 | – | –
4 | COC(=O)CC[C@H](NC(=O)/C=C/c1cccc(Oc2ccccc2)c1)C(=O)OC [Compound 12c] | 65 | – | IC50 [2]: 60 µM
5 | CCOC(=O)CNC(=O)/C=C/c1ccc(C(F)(F)F)cc1 [Compound 13a] | 8 | – | LOX inhibition (%) [2]: 31%
6 | COC(=O)CC[C@H](NC(=O)/C=C/c1ccc(C(F)(F)F)cc1)C(=O)OC [Compound 13c] | 37 | – | IC50 [2]: 80 µM
7 | O=C(O)/C=C/c1ccc(Br)cc1 [Compound 14] | 13 | 100 | –
8 | CCOC(=O)CNC(=O)/C=C/c1ccc(Br)cc1 [Compound 14a] | 69 | 65.5 | –
9 | COC(=O)CCCNC(=O)/C=C/c1ccc(Br)cc1 [Compound 14b] | 11 | – | LOX inhibition (%) [2]: 12%
10 | COC(=O)CC[C@H](NC(=O)/C=C/c1ccc(Br)cc1)C(=O)OC [Compound 14c] | 38 | – | IC50 [2]: 75 µM
11 | CCOC(=O)CNC(=O)/C=C/c1cccc(Br)c1 [Compound 15a] | 26 | – | IC50 [2]: 57.5 µM
12 | COC(=O)CCCNC(=O)/C=C/c1cccc(Br)c1 [Compound 15b] | 27 | – | COX-2 inhibition (%) (ovine COX-2): 43%
13 | COC(=O)CC[C@H](NC(=O)/C=C/c1cccc(Br)c1)C(=O)OC [Compound 15c] | – | – | IC50 [2]: 75 µM
14 | O=C(O)/C=C/c1ccc(Cl)cc1 [Compound 16] | – | – | inhibition at 100 µM (ovine COX-2): 46%
15 | CCOC(=O)CNC(=O)/C=C/c1ccc(Cl)cc1 [Compound 16a] | – | 63 | –
16 | COC(=O)CCCNC(=O)/C=C/c1ccc(Cl)cc1 [Compound 16b] | 8 | 92.5 | –
17 | COC(=O)CC[C@H](NC(=O)/C=C/c1ccc(Cl)cc1)C(=O)OC [Compound 16c] | 26 | – | –
18 | O=C(O)/C=C/c1cccc2ccccc12 [Compound 17] | 78 | – | –
19 | CCOC(=O)CNC(=O)/C=C/c1cccc2ccccc12 [Compound 17a] | – | – | LOX inhibition (%) [2]: 23%
20 | COC(=O)CCCNC(=O)/C=C/c1ccc(OC)c(OC)c1 [Compound 18b] | 75 | – | LOX inhibition (%) [2]: 40%

Row | SMILES | AAPH inhibition (%, at 100 µM) [1] [%] | IC50 (ovine COX-2) [µM] | other results
21 | COC(=O)CC[C@H](NC(=O)/C=C/c1ccc(OC)c(OC)c1)C(=O)OC [Compound 18c] | 74 | – | IC50 [2]: 57.5 µM
22 | CCOC(=O)CNC(=O)/C=C/c1cc(OC)ccc1OC [Compound 19a] | 89 | – | LOX inhibition (%) [2]: 28%
23 | COC(=O)CCCNC(=O)/C=C/c1cc(OC)ccc1OC [Compound 19b] | 70 | – | COX-2 inhibition (%) (ovine COX-2): 20%
24 | COC(=O)CC[C@H](NC(=O)/C=C/c1cc(OC)ccc1OC)C(=O)OC [Compound 19c] | 64 | – | LOX inhibition (%) [2]: 7%
25 | COC(=O)CCCNC(=O)C=Cc1ccccc1 [Compound 22b] | 24 | 61 | –
26 | CCOC(=O)CNC(=O)/C=C/C=C/c1ccccc1 [Compound 23a] | 85 | 35 | –
27 | COC(=O)CCCNC(=O)/C=C/C=C/c1ccccc1 [Compound 23b] | 78 | 55 | –
28 | COc1cc(/C=C/C(=O)O)ccc1O [Compound 24] | 86 | – | inhibition at 100 µM (ovine COX-2): 14%
29 | CCOC(=O)CNC(=O)/C=C/c1ccc(O)cc1 [Compound 25a] | 39 | – | –
30 | CCOC(=O)CNC(=O)/C=C/c1ccc(C#N)cc1 [Compound 26a] | 37 | 77.5 | –
31 | COC(=O)CCCNC(=O)/C=C/c1ccc(C#N)cc1 [Compound 26b] | 3 | 32.5 | –
32 | COC(=O)CC[C@H](NC(=O)/C=C/c1ccc(C#N)cc1)C(=O)OC [Compound 26c] | – | – | LOX inhibition (%) [2]: 10%
33 | O=C(O)/C=C/c1ccc(F)cc1 [Compound 27] | – | – | inhibition at 100 µM (ovine COX-2): 46%
34 | CCOC(=O)CNC(=O)/C=C/c1ccc(F)cc1 [Compound 27a] | 78 | – | –
35 | COC(=O)CCCNC(=O)/C=C/c1ccc(F)cc1 [Compound 27b] | 22 | 75 | –
36 | O=C(O)/C=C/c1ccc(O)c(O)c1 [Compound 28, trans-caffeic acid] | 80 | – | inhibition at 100 µM (ovine COX-2): 6%
37 | COC(=O)CCCNC(=O)/C=C/c1ccc2c(c1)OC(C)(C)O2 [Compound 29b] | – | – | COX-2 inhibition (%) (ovine COX-2): 4%
38 | CCOC(=O)CNC(=O)/C=C/c1ccc(OC(C)=O)cc1 [Compound 30a] | – | 58 | –
39 | COC(=O)CCCNC(=O)/C=C/c1ccc(OC(C)=O)cc1 [Compound 30b] | 9 | 50 | –
40 | Cc1c(C)c2c(c(C)c1O)CCC(C)(C(=O)O)O2 (stereo not drawn) [Trolox, reference compound] | 92 | – | –
